Data published in patent US20030138773A1, “METHODS OF TRANSCRIPTIONALLY MODULATING GENE EXPRESSION” (priority 1989, published 2003).

Assays:
[1] = tested on: mouse mammary tumor virus (MMTV) promoter; experiment: MMTV promoter-luciferase reporter, cell clone M10 (high-throughput screen); type: cell-based; conditions: for stimulation of the MMTV promoter in cell clone M10 by steroids: FIG. 43
Excerpt: NIH/3T3 fibroblast cells (ATCC number CRL 1658) were used for transfection of plasmids containing the mouse mammary tumor virus (MMTV) promoter linked to firefly luciferase coding sequences (see below). Cells were propagated in Dulbecco's modified Eagle's medium (DMEM) obtained from Gibco, Grand Island, N.Y. and supplemented with 10% FCS. For high-throughput (HTP) screening, transfected NIH/3T3 clones were transferred to serum free defined medium consisting of Iscove's modified Eagle's medium (IMEM) and Ham's F12 medium (1:1) supplemented with growth factors, hormones and nutrients as described previously (43).
The firefly luciferase gene was removed from the plant expression plasmid pDO432 (33) (FIG. 1) as a 1.9 kb BamHI fragment and cloned into the BamHI site of pSVL (Pharmacia, Piscataway, N.J.), a mammalian expression vector containing the SV40 promoter. The resulting plasmid (pSVLuci; FIG. 2) was digested with XhoI and SalI to produce a 2.4 kb fragment containing the luciferase coding sequences and the SV40 late polyadenylation site. This fragment was inserted into the XhoI site of pMSG (Pharmacia, Piscataway, N.J.), a eukaryotic expression vector containing the MMTV promoter. The resulting MMTV promoter-luciferase fusion plasmid (pMLuci; FIG. 3) was used to transfect NIH/3T3 cells as described below (section El). Similar constructs can be made using luciferase vectors from Clontech (Palo Alto, Calif.).
pMluci (FIG. 3) and pSV2Neo, an antibiotic resistance plasmid (34), were co-transfected into NIH/3T3 mouse fibroblast cells using the calcium phosphate precipitation method (15) with a commercially available kit (Pharmacia, Piscataway N.J.). […] Once sufficient cell numbers were obtained, clones were analyzed based on several criteria: constitutive luciferase production, induction of luciferase expression by dexamethasone (1 μM, Sigma, St. Louis, Mo.), satisfactory attachment to microtiter plates used in the high-throughput screen (see section G) and acceptable standard deviation in multiple luciferase expression assays (see below for assay protocol). […]

human G-CSF promoter = experiment: G-CSF promoter-luciferase reporter, cell clone G21 (high-throughput screen); type: cell-based; conditions: 5 μg/ml; FIG. 42
Excerpt: A human bladder carcinoma cell line (U5637, ATCC number HTB 9) was used for transfection of plasmids containing the human Granulocyte-Colony Stimulating Factor (G-CSF) promoter (see below) and was maintained in RPMI medium supplemented with 10% FCS. For HTP screening, transfected 5637 clones were transferred to a serum free defined medium identical to that used for the NIH/3T3 clones.
The sequences of OL-1, OL-2 and OL-5 recognize the G-CSF promoter region, OL-4 recognizes the first intron/exon junction and OL-3 recognizes sequences within the second exon (32). […]
(§1) To assay for luciferase expression in transient expression assays in the various transfected clones, cells were incubated with various transcriptional inducers in serum free defined media, washed 3 times with Dulbecco's phosphate-buffered saline (D-PBS, Gibco) and lysed in Lysis Buffer 1 (50 mM Tris acetate pH 7.9, 1 mM EGTA, 10 mM magnesium acetate, 1 mg/ml bovine serum albumin [BSA], 0.5% Brij 58, 2 mM ATP, 100 mM dithiothreitol [DTT]). […] Samples were counted individually in an LKB (Gaithersburg, Md.) scintillation counter on a setting which allows measurement of individual photons by switching off the coincidence circuit. […]

G-CSF mRNA = experiment: Northern blot of endogenous G-CSF mRNA in 5637 cells; type: cell-based, human; conditions: G-CSF-specific probe, compared to solvent DMSO, FIG. 46
Procedure: Total cellular RNA was isolated from the G21 cell clone or from untransfected 5637 cells following incubation for 6 hours with various transcriptionally modulating chemicals identified in the high-throughput screen. Cells were grown in serum free medium as described above. Total cellular RNA was isolated using the RNAZol method (CINNA/BIOTECX, Friendswood, Tex., Laboratories International, Inc.). Cells were resuspended and lysed with RNAZol solution (1.5 ml/9 cm petri dish) and the RNA was solubilized by passing the lysate a few times through a pipette. Chloroform was added to the homogenate (0.1 ml/1 ml), and samples were shaken for 15 seconds followed by a 5 minute incubation on ice. After centrifuging for 10 minutes, the upper phase was collected and an equal volume of isopropanol was added. Samples were incubated for 45 minutes at −20° C., and the RNA was pelleted for 15 minutes at 12,000×g at 4° C. The RNA pellet was then washed with 70% ethanol and dried briefly under vacuum.
Total cellular RNA was isolated from 5637 cells following incubation with chemicals as described above and electrophoresed in a 1% Agarose-1M Formaldehyde gel. […] Bands were excised and counted in a liquid scintillation counter (LKB, Gaithersburg, Md.), and counts obtained with the G-CSF specific probe were normalized relative to the counts obtained with the B-Actin specific probe.

[2] = tested on: human growth hormone promoter; experiment: hGH promoter-luciferase reporter, cell clone 532 (high-throughput screen); type: cell-based; conditions: 100 nM; FIG. 42
Excerpt: A rat pituitary cell line, designated GC, (4, 25) was used for transfection of plasmids containing the human growth hormone promoter (see below) and was maintained in DMEM and Ham's F12 medium (1:1), supplemented with 12.5% FCS. For HTP screening, transfected GC clones were transferred to serum free defined medium consisting of DMEM and Ham's F12 medium (1:1) supplemented with growth factors, hormones and nutrients as described previously (17, 5).
The SalI-XhoI fragment of pSVLuci (FIG. 2) containing the luciferase coding sequences and the SV40 late polyadenylation site was inserted into pUC 8 (Biorad, Richmond, Calif.), which had been linearized by a SmaI/HinCII digestion and ligated to XhoI linkers (New England Biolabs, Beverly, Mass.). […]
as §1

C[C@@H]1C[C@H]2[C@@H]3CCC4=CC(=O)C=C[C@]4(C)[C@@]3(F)[C@@H](O)C[C@]2(C)[C@@]1(O)C(=O)CO [dexamethasone]
stimulation of luciferase expression, clone M10 ([1]; 1 μM, FIG. 42): 11.6 fold

lipopolysaccharide
stimulation of luciferase expression, clone G21 (human G-CSF promoter): 5.7 fold

CC(=O)[C@H]1CC[C@H]2[C@@H]3CCC4=CC(=O)CC[C@]4(C)[C@H]3CC[C@]12C [progesterone]
stimulation of the MMTV promoter in cell clone M10 by steroids [1]: did not

C[C@]12CCC(=O)C=C1CC[C@@H]1[C@@H]2[C@@H](O)C[C@]2(C=O)[C@@H](C(=O)CO)CC[C@@H]12 [aldosterone]
stimulation of the MMTV promoter in cell clone M10 by steroids [1]: stimulates

IFN-gamma: a proteinaceous positive regulator
production of endogenous G-CSF mRNA (G-CSF mRNA): increased

rat growth hormone releasing factor: known inducer of hGH expression (Bachem) (HADAIFTSSYRRILGQLYARKLLHEIMNRQQGERNQEQRSRFN; Somatoliberin; UniProt P09916 31-73, looked up)
stimulation of luciferase expression, clone 532 [2]: 2.2 fold
